# Source: US11040976B2, “Substrate selective inhibitors of insulin-degrading enzyme (IDE) and uses thereof” (President and Fellows of Harvard College, priority 2015, dated 2021)
# Target: T1, human IDE Ala479Leu (Homo sapiens, UniProt P14735, A479L)
# T1 construct: N-His6-tagged human IDE42-1019 construct was introduced in the expression plasmid pTrcHis-A; His6 (N); made in house; host or cells: E. coli Rosetta 2 (DE3) pLysS
# T1 sequence (P14735 42-1019 A479L): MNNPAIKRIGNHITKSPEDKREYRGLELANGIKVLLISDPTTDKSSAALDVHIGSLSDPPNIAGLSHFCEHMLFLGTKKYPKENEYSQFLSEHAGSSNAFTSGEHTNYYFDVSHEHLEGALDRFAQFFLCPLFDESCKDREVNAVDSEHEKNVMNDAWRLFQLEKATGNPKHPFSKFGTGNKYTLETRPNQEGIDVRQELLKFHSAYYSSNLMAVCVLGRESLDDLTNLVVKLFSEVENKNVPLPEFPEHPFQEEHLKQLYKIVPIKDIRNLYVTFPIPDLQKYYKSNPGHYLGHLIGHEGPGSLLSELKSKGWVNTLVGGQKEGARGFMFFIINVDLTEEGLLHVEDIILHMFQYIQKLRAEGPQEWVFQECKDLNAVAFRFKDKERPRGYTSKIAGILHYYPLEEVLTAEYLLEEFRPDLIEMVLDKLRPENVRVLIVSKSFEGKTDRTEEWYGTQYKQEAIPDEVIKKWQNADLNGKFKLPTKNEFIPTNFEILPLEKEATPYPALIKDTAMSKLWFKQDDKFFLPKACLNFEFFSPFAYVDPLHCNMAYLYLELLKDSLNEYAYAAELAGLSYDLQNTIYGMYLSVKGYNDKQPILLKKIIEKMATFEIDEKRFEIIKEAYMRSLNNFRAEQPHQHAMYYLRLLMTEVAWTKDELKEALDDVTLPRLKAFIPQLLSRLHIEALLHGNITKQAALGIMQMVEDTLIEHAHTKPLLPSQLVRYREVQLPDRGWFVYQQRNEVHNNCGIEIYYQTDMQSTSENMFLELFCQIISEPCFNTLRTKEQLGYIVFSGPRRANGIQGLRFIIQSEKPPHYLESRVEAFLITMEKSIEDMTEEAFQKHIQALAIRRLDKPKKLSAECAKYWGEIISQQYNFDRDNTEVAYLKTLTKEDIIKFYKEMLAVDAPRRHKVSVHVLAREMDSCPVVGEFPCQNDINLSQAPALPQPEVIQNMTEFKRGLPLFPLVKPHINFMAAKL
# Experiment: Activity assay of mutant human IDE variant A479L with IDE inhibitors
# Type: biochemical
# From the text: N-His6-tagged human IDE42-1019 construct was introduced in the expression plasmid pTrcHis-A (Invitrogen) using primers for uracil-specific excision reactions (USER) by Taq (NEB) and Pfu polymerases (PfuTurbo CX®, Agilent), as described in more detail in Maianti et al. (Nature (2014), 511, 94-98), which is incorporated by reference herein. The IDE gene was amplified with the primers 5′-[…]-dU-[…] (SEQ ID NO: 26) and 5′-[…] G-dU-[…] (SEQ ID NO: 27) (underlined sequences represent overhangs, and italics highlight the PCR priming sequence). Similarly, the pTrcHis-A vector was amplified for USER cloning with the primers 5′-[…]-dU-[…] (SEQ ID NO: 28) and 5′-[…]-dU-[…] (SEQ ID NO: 29). Mutant IDE constructs were generated by amplifying the full vector construct with USER cloning primers introducing a mutant overhang (see Table E6).
# Recombinant His6-tagged proteins were purified by Ni(II)-affinity chromatography (IMAC sepharose beads, GE Healthcare®) according to the manufacturer's instructions. The cell pellets were re-suspended in pH 8.0 buffer containing 50 mM phosphate, 300 mM NaCl, 10 mM imidazole, 1% Triton X-100 and 1 mM tris(2-carboxyethyl)phosphine hydrochloride (TCEP), and were lysed by probe sonication for 4 minutes at <4° C., followed by clearing of cell debris by centrifugation at 10,000 g for 25 minutes at 4° C. […]
structure (smiles),measurement,value
"NCCCC[C@@H]1NC(=O)/C=C/C(=O)N[C@H](C(N)=O)CCCCNC(=O)[C@@H](Cc2ccc(C(=O)c3ccccc3)cc2)NC(=O)[C@H](CC2CCCCC2)NC1=O [6bK, reference compound]",effect of Ala479Leu mutation on inhibition of IDE,blocks 6bK from inhibiting IDE
